Measured values as given in ChEMBL document CHEMBL3885881, “DrugMatrix”.

Species on record: Rattus norvegicus
Assay: DrugMatrix - Regimen: Daily Repeat
Type: toxicity, organism-based, Sprague-Dawley
Set-up: regimen Daily Repeat, gender Male, age 6-8 weeks
Conditions: in vivo, sc, route subcutaneous, […]; for ABSOLUTE BASOPHIL / ABSOLUTE EOSINOPHIL / ABSOLUTE LYMPHOCYTE / ABSOLUTE MONOCYTE / ABSOLUTE SEGMENTED NEUTROPHIL / BASOPHIL / EOSINOPHIL / ERYTHROCYTE COUNT / HEMATOCRIT / HEMOGLOBIN / LEUKOCYTE COUNT / LYMPHOCYTE / MEAN CORPUSCULAR HEMOGLOBIN / MEAN CORPUSCULAR HEMOGLOBIN CONCENTRATION / MEAN CORPUSCULAR VOLUME / MONOCYTE / NEUTROPHIL / NUCLEATED RED BLOOD CELLS / PLATELET COUNT: tissue Blood; for ALANINE AMINOTRANSFERASE / ALBUMIN / ALKALINE PHOSPHATASE / ASPARTATE AMINOTRANSFERASE / BLOOD UREA NITROGEN / CARBON DIOXIDE / CHLORIDE / CHOLESTEROL / CREATINE PHOSPHOKINASE / CREATININE / GLUCOSE / LACTATE DEHYDROGENASE / LIPASE / PHOSPHORUS / POTASSIUM / SODIUM / TOTAL BILIRUBIN / TOTAL PROTEIN / URIC ACID: tissue Plasma
[1] = 29 mg/kg, 120 h, dose level Low, time 5 day
[2] = 1200 mg/kg, 72 h, dose level High, time 3 day
[3] = 1200 mg/kg, 120 h, dose level High, time 5 day

Structure (SMILES): Nc1nc2c(ncn2CCC(CO)CO)c(=O)[nH]1 [PENCICLOVIR]
- ABSOLUTE BASOPHIL [1]: 0 CELLS/uL
- ABSOLUTE EOSINOPHIL [1]: 0 CELLS/uL
- ABSOLUTE LYMPHOCYTE [1]: 9185.33 CELLS/uL
- ABSOLUTE MONOCYTE [1]: 38 CELLS/uL
- ABSOLUTE SEGMENTED NEUTROPHIL [1]: 2710 CELLS/uL
- BASOPHIL [1]: 0%
- EOSINOPHIL [1]: 0%
- ERYTHROCYTE COUNT [1]: 5.6 x10E6/uL
- HEMATOCRIT [1]: 35.77%
- HEMOGLOBIN [1]: 13.33 G/DL
- LEUKOCYTE COUNT [1]: 11.93 x10E3/uL
- LYMPHOCYTE [1]: 77%
- MEAN CORPUSCULAR HEMOGLOBIN [1]: 23.83 pg
- MEAN CORPUSCULAR HEMOGLOBIN CONCENTRATION [1]: 37.27 G/DL
- MEAN CORPUSCULAR VOLUME [1]: 63.8 fL
- MONOCYTE [1]: 0.33%
- NEUTROPHIL [1]: 22.67%
- NUCLEATED RED BLOOD CELLS [1]: 0 /100WBC
- PLATELET COUNT [1]: 979 x10E3/uL
- ALANINE AMINOTRANSFERASE [1]: 64 u/L
- ALBUMIN [1]: 3.9 G/DL
- ALKALINE PHOSPHATASE [1]: 325.67 u/L
- ASPARTATE AMINOTRANSFERASE [1]: 95 u/L
- BLOOD UREA NITROGEN [1]: 19 mg/dL
- CARBON DIOXIDE [1]: 24.67 mmol/L
- CHLORIDE [1]: 105.33 MEQ/L
- CHOLESTEROL [1]: 96.67 mg/dL
- CREATINE PHOSPHOKINASE [1]: 520.33 u/L
- CREATININE [1]: 0.18 mg/dL
- GLUCOSE [1]: 168.33 mg/dL
- LACTATE DEHYDROGENASE [1]: 141.67 u/L
- LIPASE [1]: 8 u/L
- PHOSPHORUS [1]: 14.77 mg/dL
- POTASSIUM [1]: 6.25 MEQ/L
- SODIUM [1]: 144.77 MEQ/L
- TOTAL BILIRUBIN [1]: 0.17 mg/dL
- TOTAL PROTEIN [1]: 5.7 G/DL
- URIC ACID [1]: 1.5 mg/dL
- ABSOLUTE BASOPHIL [2]: 0 CELLS/uL
- ABSOLUTE EOSINOPHIL [2]: 107.33 CELLS/uL
- ABSOLUTE LYMPHOCYTE [2]: 7265 CELLS/uL
- ABSOLUTE MONOCYTE [2]: 87 CELLS/uL
- ABSOLUTE SEGMENTED NEUTROPHIL [2]: 974 CELLS/uL
- BASOPHIL [2]: 0%
- EOSINOPHIL [2]: 1.33%
- ERYTHROCYTE COUNT [2]: 4.97 x10E6/uL
- HEMATOCRIT [2]: 30.73%
- HEMOGLOBIN [2]: 11.67 G/DL
- LEUKOCYTE COUNT [2]: 8.43 x10E3/uL
- LYMPHOCYTE [2]: 86.33%
- MEAN CORPUSCULAR HEMOGLOBIN [2]: 23.43 pg
- MEAN CORPUSCULAR HEMOGLOBIN CONCENTRATION [2]: 37.97 G/DL
- MEAN CORPUSCULAR VOLUME [2]: 61.77 fL
- MONOCYTE [2]: 1%
- NEUTROPHIL [2]: 11.33%
- NUCLEATED RED BLOOD CELLS [2]: 0.33 /100WBC
- PLATELET COUNT [2]: 1398.33 x10E3/uL
- ALANINE AMINOTRANSFERASE [2]: 36 u/L
- ALBUMIN [2]: 3.13 G/DL
- ALKALINE PHOSPHATASE [2]: 311.67 u/L
- ASPARTATE AMINOTRANSFERASE [2]: 64.33 u/L
- BLOOD UREA NITROGEN [2]: 12.33 mg/dL
- CARBON DIOXIDE [2]: 28 mmol/L
- CHLORIDE [2]: 105.5 MEQ/L
- CHOLESTEROL [2]: 58.33 mg/dL
- CREATINE PHOSPHOKINASE [2]: 201.33 u/L
- CREATININE [2]: 0.19 mg/dL
- GLUCOSE [2]: 132.67 mg/dL
- LACTATE DEHYDROGENASE [2]: 105.67 u/L
- LIPASE [2]: 6.5 u/L
- PHOSPHORUS [2]: 10.63 mg/dL
- POTASSIUM [2]: 5.8 MEQ/L
- SODIUM [2]: 147.5 MEQ/L
- TOTAL BILIRUBIN [2]: 0.0667 mg/dL
- TOTAL PROTEIN [2]: 5.97 G/DL
- URIC ACID [2]: 0.93 mg/dL
- ABSOLUTE BASOPHIL [3]: 0 CELLS/uL
- ABSOLUTE EOSINOPHIL [3]: 219.33 CELLS/uL
- ABSOLUTE LYMPHOCYTE [3]: 14998.67 CELLS/uL
- ABSOLUTE MONOCYTE [3]: 280 CELLS/uL
- ABSOLUTE SEGMENTED NEUTROPHIL [3]: 5502 CELLS/uL
- BASOPHIL [3]: 0%
- EOSINOPHIL [3]: 1%
- ERYTHROCYTE COUNT [3]: 4.92 x10E6/uL
- HEMATOCRIT [3]: 30.6%
- HEMOGLOBIN [3]: 11.77 G/DL
- LEUKOCYTE COUNT [3]: 21 x10E3/uL
- LYMPHOCYTE [3]: 71.33%
- MEAN CORPUSCULAR HEMOGLOBIN [3]: 23.97 pg
- MEAN CORPUSCULAR HEMOGLOBIN CONCENTRATION [3]: 38.47 G/DL
- MEAN CORPUSCULAR VOLUME [3]: 62.2 fL
- MONOCYTE [3]: 1.33%
- NEUTROPHIL [3]: 26.33%
- NUCLEATED RED BLOOD CELLS [3]: 0 /100WBC
- PLATELET COUNT [3]: 2260.33 x10E3/uL
- ALANINE AMINOTRANSFERASE [3]: 31.33 u/L
- ALBUMIN [3]: 2.63 G/DL
- ALKALINE PHOSPHATASE [3]: 297.33 u/L
- ASPARTATE AMINOTRANSFERASE [3]: 73.67 u/L
- BLOOD UREA NITROGEN [3]: 22 mg/dL
- CARBON DIOXIDE [3]: 25.33 mmol/L
- CHLORIDE [3]: 103 MEQ/L
- CHOLESTEROL [3]: 52 mg/dL
- CREATINE PHOSPHOKINASE [3]: 232.33 u/L
- CREATININE [3]: 0.34 mg/dL
- GLUCOSE [3]: 147 mg/dL
- LACTATE DEHYDROGENASE [3]: 216.33 u/L
- LIPASE [3]: 6.67 u/L
- PHOSPHORUS [3]: 12 mg/dL
- POTASSIUM [3]: 6.2 MEQ/L
- SODIUM [3]: 143.07 MEQ/L
- TOTAL BILIRUBIN [3]: 0.1 mg/dL
- TOTAL PROTEIN [3]: 5.73 G/DL
- URIC ACID [3]: 2.3 mg/dL
